Measurements as given in patent publication US20190381017A1, “Compositions Comprising Serdexmethylphenidate Conjugates And Methods Of Use Thereof” (KemPharm, Inc., priority 2018, published 2019).
“And” between values parts separate entries of the source, which are not always exact repeats. Identical values can stand only once. Counter-ions that a name gives are not always drawn.

Key:
[1] = test system: healthy, nondependent, recreational stimulant users with intranasal insufflation experience; assay: Intranasal abuse potential, VAS pharmacodynamic scores (Example 5); type: in vivo, human; conditions: for Mean Overall Drug Liking / Mean Take Drug Again / Median Overall Drug Liking / Median Take Drug Again / Drug Liking Emax (median) / Feeling Drowsy/Alert Emax (mean) / Feeling Drowsy/Alert Emax (median) / Overall Drug Liking Emax (mean) / Overall Drug Liking Emax (median) / Take Drug Again Emax (mean) / Take Drug Again Emax (median) / Drug Liking Emax (mean): bipolar VAS; for Any Effect Emax (mean) / Any Effect Emax (median) / Bad Effects Emax (mean) / Bad Effects Emax (median) / Ease of Nasal Insufflation (mean) / Ease of Nasal Insufflation (median) / Feeling High Emax (mean) / Feeling High Emax (median) / Good Effects Emax (mean) / Good Effects Emax (median): unipolar VAS
Description: The study consisted of a Screening Period, an in-clinic Drug Discrimination Phase, a Treatment Phase, and a Follow-Up Visit.
Subjects who successfully completed the Screening Period returned to the clinic to complete the Drug Discrimination Phase. The Drug Discrimination Test was performed to ensure that subjects can differentiate between the effects of a single dose of d-methylphenidate hydrochloride and placebo, administered intranasally. Subjects who successfully completed the Drug Discrimination Phase remained as inpatients to enter the Treatment Phase. The Drug Discrimination Phase was a double-blind, intranasal, single-dose, 2-treatment, 2-period, 2-sequence, randomized, crossover design.
All subjects were required to fast for at least 8 hours prior to each dose of study drug until approximately 4 hours after each dose. Abuse potential measures and pharmacokinetic samples were collected at different times after the administration of study drug. Subjects who successfully completed the Drug Discrimination Phase and who qualified for the Treatment Phase remained as inpatients to enter the Treatment Phase.
The placebo dose consisted of 80 mg of microcrystalline cellulose to create the same volume.
On dosing days in the Treatment Phase, blood samples were collected for the measurement of the plasma concentrations of SDX, d-methylphenidate (d-MPH), l-methylphenidate (l-MPH) and ritalinic acid at predose and at 0.25, 0.5, 0.75, 1, 1.5, 2, 3, 4, 5, 6, 7, 8, 9, 10, 12, 16, 24, 36, and 48 hours±5 minutes after each dose of study drug. […] All VAS pharmacodynamic assessments except Take Drug Again and Overall Drug Liking were performed at 0.25, 0.5, 0.75, 1, 1.5, 2, 3, 4, 5, 6, 7, 8, 10, 12, 24 hours±5 minutes postdose. In addition, predose assessments of Feeling High, and Drowsiness/Alertness were collected. The Take Drug Again and Overall Drug Liking VAS assessments were performed at 12 and 24 hours±5 minutes postdose.

[2] = test system: recreational stimulant users; assay: Intravenous abuse potential, VAS pharmacodynamic scores (Example 2); type: in vivo, human
Description: “Drug liking” score, used herein, is the score used to assess the degree that a human participant likes a drug effect at the time the question is being asked (that is, at the moment). It is scored using a 0 to 100 point bipolar visual analogue scale (VAS) anchored in the center with a neutral anchor of “neither like nor dislike” (score of 50), on the left with “strong disliking” (score of 0) and on the right with “strong liking” (score of 100).
“Euphoria” or “Feeling High” score, used herein, is the term to describe the score used to assess the degree that a human participant is high at the time the question is being asked (that is, at the moment). It is scored using a 0 to 100 point unipolar visual analogue scale (VAS) anchored on the left with “Not at All” (score of 0) and on the right with “Extremely” (score of 100).
“Take Drug Again” score, used herein, is the term to describe the score used to assess the degree that a human participant wants to take the drug again, if given the opportunity, based on his/her opinion now, i.e., at the time the question is being asked. It is scored using a 0 to 100 point unipolar visual analogue scale (VAS) anchored on the left with “Definitely Would Not” (score of 0) and on the right with “Definitely Would” (score of 100).
“Overall Drug Liking” score, used herein, is the term to describe the score used to assess the human subject's global perception of drug liking (i.e., the subjective effects over the whole course of the drug experience including any carryover effects). Subjects respond to the statement “Overall, my liking for this drug is.” The question is scored using a 0-100 point bipolar VAS anchored on the left with “Strong Disliking” (score of 0); “Neither Like nor Dislike” (score of 50) in the middle, and anchored on the right with “Strong Liking” (score of 100). This scale has the advantage of the human subject being relatively less affected or unaffected by acute study drug effects (if any) by the time of the assessment.
“Good Effects” score, used herein, is the term to describe the score used to assess the degree that a human participant is feeling good drug effects at the time the question is being asked (that is, at the moment). Subjects respond to the statement “At this moment, I can feel good drug effects.” It is scored using a 0 to 100 point unipolar visual analogue scale (VAS) anchored on the left with “Not at All” (score of 0) and on the right with “Extremely” (score of 100).
Safety assessments were performed throughout the study.

[3] = SDX Cl 80 mg, d-MPH HCl 40 mg, 12 hours
[4] = SDX Cl 80 mg, d-MPH HCl 40 mg, 24 hours
[5] = d-MPH HCl 40 mg vs SDX Cl 80 mg
[6] = SDX Cl 30 mg, d-MPH HCl 15 mg, 12 hours
[7] = SDX Cl 30 mg, d-MPH HCl 15 mg, 12 hours, unipolar VAS
[8] = SDX Cl 30 mg, d-MPH HCl 15 mg, 24 hours
[9] = SDX Cl 30 mg, d-MPH HCl 15 mg, 24 hours, unipolar VAS
[10] = SDX Cl 30 mg, d-MPH HCl 15 mg, bipolar VAS
[11] = SDX Cl 30 mg, d-MPH HCl 15 mg, unipolar VAS
[12] = d-MPH HCl 15 mg vs SDX Cl 30 mg, bipolar VAS
[13] = d-MPH HCl 15 mg vs SDX Cl 30 mg, unipolar VAS
[14] = SDX Cl 30 mg vs placebo, bipolar VAS
[15] = SDX Cl 30 mg vs placebo, unipolar VAS

## COC(=O)[C@H](c1ccccc1)[C@H]1CCCCN1 [d-methylphenidate hydrochloride, d-threo-methylphenidate hydrochloride]
[1]; SDX Cl 80 mg, d-MPH HCl 40 mg
  Mean difference Any Effect Emax vs placebo: 88.6
  Mean difference Ease of Nasal Insufflation Emax vs placebo: 11.3
  Mean difference Feeling Drowsy/Alert Emax vs placebo: 42.3
  Mean difference Feeling High Emax vs placebo: 85.2
  Mean difference Good Effects Emax vs placebo: 90.0
  Mean difference Overall Drug Liking vs placebo, 24 hours: 26.1
  Mean difference Take Drug Again vs placebo, 12 hours: 29.1
  Mean difference Take Drug Again vs placebo, 24 hours: 28.3
  Mean difference Take Drug Again vs placebo, Emax: 31.1
  Median difference Bad Effects Emax vs placebo: 10.5
  Drug Liking Emax (median): 100
  Feeling Drowsy/Alert Emax (mean): 93.4
  Feeling Drowsy/Alert Emax (median): 100
  Overall Drug Liking Emax (mean): 81.0
  Overall Drug Liking Emax (median): 90
  Take Drug Again Emax (mean): 80.3
  Take Drug Again Emax (median): 95
  Any Effect Emax (mean): 89.2
  Any Effect Emax (median): 100
  Bad Effects Emax (mean): 18.6
  Bad Effects Emax (median): 2
  Ease of Nasal Insufflation (mean): 18.1
  Ease of Nasal Insufflation (median): 7
  Feeling High Emax (mean): 88.0
  Feeling High Emax (median): 97
  Good Effects Emax (mean): 90.6
  Good Effects Emax (median): 97
[1]; [3]
  Mean Overall Drug Liking: 79.6
  Mean Take Drug Again: 78.2
  Median Overall Drug Liking: 87
  Median Take Drug Again: 91
[1]; [4]
  Mean Overall Drug Liking: 76.3
  Mean Take Drug Again: 77.4
  Median Overall Drug Liking: 82
  Median Take Drug Again: 94
[1]; SDX Cl 80 mg, d-MPH HCl 40 mg, hydrochloride
  Drug Liking Emax (mean): 93 and 93.2
[1]; d-MPH HCl 40 mg
  Median difference Drug Liking Emax vs placebo: 45
  Median difference Overall Drug Liking vs placebo, 12 hours: 33.5
  Median difference Overall Drug Liking vs placebo, Emax: 35
[1]; [5]
  Mean difference Any Effect Emax: 39.8
  Mean difference Drug Liking Emax: 22.3
  Mean difference Ease of Nasal Insufflation Emax: -47.7
  Mean difference Feeling Drowsy/Alert Emax: 22.2
  Mean difference Feeling High Emax: 44.5
  Mean difference Good Effects Emax: 45.7
  Mean difference Overall Drug Liking, 12 hours: 19.2
  Mean difference Overall Drug Liking, 24 hours: 17.3
  Mean difference Overall Drug Liking, Emax: 19.3
  Mean difference Take Drug Again, 12 hours: 21.5
  Mean difference Take Drug Again, 24 hours: 21.5
  Mean difference Take Drug Again, Emax: 20.3
  Median difference Bad Effects Emax: 0
[2]; [6]
  Mean Overall Drug Liking: 68.0
  Median Overall Drug Liking: 73.0
[2]; [7]
  Mean Take Drug Again: 61.3
  Median Take Drug Again: 69.5
[2]; [8]
  Mean Overall Drug Liking: 67.3
  Median Overall Drug Liking: 70.5
[2]; [9]
  Mean Take Drug Again: 54.9
  Median Take Drug Again: 58.5
[2]; [10]
  Drug Liking Emax (median): 84.5
  Overall Drug Liking Emax (mean): 72.4
  Overall Drug Liking Emax (median): 74.0
[2]; [11]
  Feeling High Emax (mean): 77.4
  Feeling High Emax (median): 79.0
  Good Effects Emax (mean): 82.1
  Good Effects Emax (median): 85.0
  Take Drug Again Emax (mean): 63.3
  Take Drug Again Emax (median): 72.5
[2]; [12]
  Median difference Drug Liking Emax: 29.0
  Median difference Overall Drug Liking, 12 hours: 16.0
  Median difference Overall Drug Liking, 24 hours: 13.5
  Median difference Overall Drug Liking, Emax: 18.0
[2]; [13]
  Mean difference Take Drug Again, 12 hours: 43.3
  Mean difference Take Drug Again, 24 hours: 39.2
  Mean difference Take Drug Again, Emax: 43.1
  Median difference Feeling High Emax: 67.0
  Median difference Good Effects Emax: 73.0

## COC(=O)[C@H](c1ccccc1)[C@H]1CCCCN1C(=O)OC[n+]1cccc(C(=O)N[C@@H](CO)C(=O)O)c1.[Cl-] [serdexmethylphenidate chloride]
[1]; SDX Cl 80 mg
  Mean difference Drug Liking Emax vs placebo: 19.9
  Mean difference Overall Drug Liking vs placebo, 12 hours: 10.3
  Mean difference Overall Drug Liking vs placebo, Emax: 11.5
[1]; SDX Cl 80 mg, d-MPH HCl 40 mg
  Mean difference Any Effect Emax vs placebo: 48.8
  Mean difference Ease of Nasal Insufflation Emax vs placebo: 59.0
  Mean difference Feeling Drowsy/Alert Emax vs placebo: 20.1
  Mean difference Feeling High Emax vs placebo: 40.7
  Mean difference Good Effects Emax vs placebo: 44.2
  Mean difference Overall Drug Liking vs placebo, 24 hours: 8.8
  Mean difference Take Drug Again vs placebo, 12 hours: 7.6
  Mean difference Take Drug Again vs placebo, 24 hours: 6.7
  Mean difference Take Drug Again vs placebo, Emax: 10.8
  Median difference Bad Effects Emax vs placebo: 9.5
  Drug Liking Emax (mean): 71.0
  Drug Liking Emax (median): 71
  Feeling Drowsy/Alert Emax (mean): 71.2
  Feeling Drowsy/Alert Emax (median): 71
  Overall Drug Liking Emax (mean): 61.8
  Overall Drug Liking Emax (median): 58
  Take Drug Again Emax (mean): 60.0
  Take Drug Again Emax (median): 56
  Any Effect Emax (mean): 49.4
  Any Effect Emax (median): 47
  Bad Effects Emax (mean): 14.9
  Bad Effects Emax (median): 1
  Ease of Nasal Insufflation (mean): 65.8
  Ease of Nasal Insufflation (median): 71
  Feeling High Emax (mean): 43.4
  Feeling High Emax (median): 36
  Good Effects Emax (mean): 44.9
  Good Effects Emax (median): 42
[1]; [3]
  Mean Overall Drug Liking: 60.4
  Mean Take Drug Again: 56.7
  Median Overall Drug Liking: 58
  Median Take Drug Again: 51
[1]; [4]
  Mean Overall Drug Liking: 59.0
  Mean Take Drug Again: 55.8
  Median Overall Drug Liking: 55
  Median Take Drug Again: 50
[1]; SDX Cl 80 mg, d-MPH HCl 40 mg, listed as SDX chloride
  Drug Liking Emax (mean): 71
[2]; [14]
  Mean difference Overall Drug Liking, 12 hours: 2.8
  Mean difference Overall Drug Liking, 24 hours: 1.2
  Mean difference Overall Drug Liking, Emax: 1.4
  Median difference Drug Liking Emax: 0.5
[2]; [15]
  Mean difference Feeling High Emax: 3.4
  Mean difference Good Effects Emax: 2.2
  Mean difference Take Drug Again, 12 hours: 9.1
  Mean difference Take Drug Again, 24 hours: 1.4
  Mean difference Take Drug Again, Emax: 6.0
[2]; [6]
  Mean Overall Drug Liking: 53.3
  Median Overall Drug Liking: 50.0
[2]; [7]
  Mean Take Drug Again: 17.5
  Median Take Drug Again: 0.0
[2]; [8]
  Mean Overall Drug Liking: 54.8
  Median Overall Drug Liking: 50.0
[2]; [9]
  Mean Take Drug Again: 15.7
  Median Take Drug Again: 0.0
[2]; [10]
  Drug Liking Emax (mean): 56.6
  Drug Liking Emax (median): 50.5
  Overall Drug Liking Emax (mean): 55.2
  Overall Drug Liking Emax (median): 50.0
[2]; [11]
  Feeling High Emax (mean): 14.5
  Feeling High Emax (median): 0.0
  Good Effects Emax (mean): 15.5
  Good Effects Emax (median): 0.0
  Take Drug Again Emax (mean): 19.6
  Take Drug Again Emax (median): 0.0
